What all share (assay type): biochemical
For one experiment, the target named is T1, activated JNK3 (Homo sapiens, UniProt P53779).
T1 construct: One such construct encodes amino acid residues Ser40-Glu402 of JNK3α1 and is preceded by Met and Gly residues; Met-Gly (initiator methionine and added glycine) (N); made in house; host or cells: E. coli BL21 (DE3)
In words: JNK inhibition assay (spectrophotometric coupled-enzyme assay). Conditions: 10 nM activated JNK3, 10 μM ATP; read-out: Activity in the JNK3 Inhibition Assay (Ki rating A-C). The text has this: A BLAST search of the EST database using the published JNK3α1 cDNA as a query identified an EST clone (#632588) that contained the entire coding sequence for human JNK3α1. Polymerase chain reactions (PCR) using pfu polymerase (Strategene) were used to introduce restriction sites into the cDNA for cloning into the pET-15B expression vector at the NcoI and BamHI sites. The protein was expressed in E. coli. […] This truncation corresponds to Ser 2 of JNK1 and JNK2 proteins, and is preceded by a methionine (initiation) and a glycine residue. The glycine residue was added in order to introduce an NcoI site for cloning into the expression vector. In addition, systematic C-terminal truncations were performed by PCR to identify a construct that give rise to diffraction-quality crystals.
5 mg of JNK3 was diluted to 0.5 mg/ml in 50 mM HEPES buffer, pH 7.5, containing 100 mM NaCl, 5 mM DTT, 20 mM MgCl2 and 1 mM ATP. GST-MKK7(DD) was added at a molar ratio of 1:2.5 GST-MKK7:JNK3. After incubation for 30 minutes at 25° C., the reaction mixture was concentrated 5-fold by ultrafiltration in a Centriprep-30 (Amicon, Beverly, Mass.), diluted to 10 ml and an additional 1 mM ATP added. This procedure was repeated three times to remove ADP and replenish ATP. The final addition of ATP was 5 mM and the mixture incubated overnight at 4° C.
The activated JNK3/GST-MKK7(DD) reaction mixture was exchanged into 50 mM HEPES buffer, pH 7.5, containing 5 mM DTT and 5% glycerol (w/v) by dialysis or ultrafiltration. The reaction mixture was adjusted to 1.1 M potassium phosphate, pH 7.5, and purified by hydrophobic interaction chromatography (at 25° C.) using a Rainin Hydropore column. […] Activated JNK3 (i.e. doubly phosphorylated JNK3) was stored at −70° C. at 0.25-1 mg/ml.
Compounds were assayed for the inhibition of JNK3 by a spectrophotometric coupled-enzyme assay. In this assay, a fixed concentration of activated JNK3 (10 nM) was incubated with various concentrations of a potential inhibitor dissolved in DMSO for 10 minutes at 30° C. in a buffer containing 0.1 M HEPES buffer, pH 7.5, containing 10 mM MgCl2, 2.5 mM phosphoenolpyruvate, 200 μM NADH, 150 μg/mL pyruvate kinase, 50 μg/mL lactate dehydrogenase, and 200 μM EGF receptor peptide. […] The reaction was initiated by the addition of 10 μM ATP and the assay plate is inserted into the spectrophotometer's assay plate compartment that was maintained at 30° C. The decrease of absorbance at 340 nm was monitored as a function of time. The rate data as a function of inhibitor concentration was fitted to competitive inhibition kinetic model to determine the Ki.

For the next experiment, the target named is CDK-2/Cyclin A (Homo sapiens, UniProt P24941). The experiment in a line: CDK2 inhibition assay (standard coupled enzyme assay). Conditions: 25 nM CDK-2/Cyclin A; read-out: CDK2 Inhibitory Activity (Ki rating A-C). As to the method: Compounds were screened in the following manner for their ability to inhibit CDK2 using a standard coupled enzyme assay (Fox et al (1998) Protein Sci 7, 2249).
To an assay stock buffer solution containing 0.1M HEPES 7.5, 10 mM MgCl2, 1 mM DTT, 25 mM NaCl, 2.5 mM phosphoenolpyruvate, […], […], […], […], and 100 μM peptide ([…], American Peptide, Sunnyvale, Calif.) was added a DMSO solution of a compound of the present invention to a final concentration of 30 μM. The resulting mixture was incubated at 30° C. for 10 minutes.
The reaction was initiated by the addition of 10 μL of CDK-2/Cyclin A stock solution to give a final concentration of 25 nM in the assay. The rates of reaction were obtained by monitoring absorbance at 340 nm over a 5-minute read time at 30° C. using a BioRad Ultramark plate reader (Hercules, Calif.). The Ki values were determined from the rate data as a function of inhibitor concentration.

Experiment [1] concerns the target Glycogen Synthase Kinase 3 (GSK-3) (Homo sapiens, UniProt P49841). The experiment in a line: GSK-3 inhibition assay (standard coupled enzyme assay). Conditions: 60 nM GSK-3, 10 μM ATP; read-out: GSK-3 Inhibitory Activity (Ki rating A-C). As to the method: Compounds were screened in the following manner for their ability to inhibit Glycogen Synthase Kinase 3 (GSK-3) using a standard coupled enzyme assay (Fox et al (1998) Protein Sci 7, 2249). To an assay stock buffer solution containing 0.1M HEPES 7.5, 10 mM MgCl2, 25 mM NaCl, 2.5 mM phosphoenolpyruvate, 300 μM NADH, 1 mM DTT, 30 μg/mL pyruvate kinase, 10 μg/mL lactate dehydrogenase, 300 μM peptide (HSSPHQp-SEDEEE, American Peptide, Sunnyvale, Calif.), and 60 nM GSK-3, was added a 30 μM solution of the compound in DMSO and the resulting mixture incubated at 30° C. for 5 min. The reaction was initiated by the addition of 10 μM ATP. The rates of reaction were obtained by monitoring absorbance at 340 nm over a 5 minute read time at 30° C. using a Molecular Devices plate reader (Sunnyvale, Calif.). The IC50 was determined from the rate data as a function of inhibitor concentration.

Experiment [2] deals with T2, Lck kinase purified from bovine thymus (Bos taurus, UniProt Q3ZCM0).
T2 construct: Lck kinase purified from bovine thymus; purchased Upstate Biotechnology 14-106; host or cells: bovine thymus (tissue-purified)
The experiment in a line: Lck inhibition assay (33P incorporation into poly Glu-Tyr). The note with it: 10 μM ATP; read-out: Activity in the Lck Inhibition Assay (Ki rating A-C). As to the method:
The compounds were assayed as inhibitors of Lck kinase purified from bovine thymus (from Upstate Biotechnology, cat. no. 14-106). Lck kinase activity was monitored by following the incorporation of ^33P from ATP into the tyrosine of a random poly Glu-Tyr polymer substrate of composition, Glu:Tyr=4:1 (Sigma, cat. no. P-0275). The following were the final concentrations of the assay components: 0.05 M HEPES, pH 7.6, 10 mM MgCl2, 2 mM DTT, 0.25 mg/ml BSA, 10 μM ATP (1-2 μCi ^33P-ATP per reaction), 5 mg/ml poly Glu-Tyr, and 1-2 units of lck kinase. In a typical assay, all the reaction components with the exception of ATP were pre-mixed and aliquoted into assay plate wells. […] The assay plate was incubated at 30° C. for 10 min before initiating the reaction with ^33P-ATP. After 20 min of reaction, the reactions were quenched with 150 μl of 10% trichloroacetic acid (TCA) containing 20 mM Na3PO4. The quenched samples were then transferred to a 96-well filter plate (Whatman, UNI-Filter GF/F Glass Fiber Filter, cat no. 7700-3310) installed on a filter plate vacuum manifold. Filter plates were washed four times with 10% TCA containing 20 mM Na3PO4 and then 4 times with methanol. 200 μl of scintillation fluid was then added to each well. The plates were sealed and the amount of radioactivity associated with the filters was quantified on a TopCount scintillation counter.

The values below come from patent US6949544B2, “Inhibitors of c-Jun N-terminal kinases (JNK) and other protein kinases” (Vertex Pharmaceuticals Incorporated, priority 2001, dated 2005).

Chain of Glycogen Synthase Kinase 3 (GSK-3) (P49841 whole entry): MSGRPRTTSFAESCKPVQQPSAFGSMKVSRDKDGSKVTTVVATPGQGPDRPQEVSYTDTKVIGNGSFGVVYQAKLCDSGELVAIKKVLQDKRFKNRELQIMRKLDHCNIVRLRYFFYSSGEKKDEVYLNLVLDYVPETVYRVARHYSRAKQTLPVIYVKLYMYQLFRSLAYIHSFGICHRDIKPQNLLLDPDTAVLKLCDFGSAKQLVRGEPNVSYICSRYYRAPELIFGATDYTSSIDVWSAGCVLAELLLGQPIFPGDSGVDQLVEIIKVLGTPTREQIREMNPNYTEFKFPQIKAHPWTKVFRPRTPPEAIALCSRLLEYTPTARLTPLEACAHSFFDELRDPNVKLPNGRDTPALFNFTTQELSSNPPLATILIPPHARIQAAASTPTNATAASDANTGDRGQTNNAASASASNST
T2 sequence (Q3ZCM0 1-509): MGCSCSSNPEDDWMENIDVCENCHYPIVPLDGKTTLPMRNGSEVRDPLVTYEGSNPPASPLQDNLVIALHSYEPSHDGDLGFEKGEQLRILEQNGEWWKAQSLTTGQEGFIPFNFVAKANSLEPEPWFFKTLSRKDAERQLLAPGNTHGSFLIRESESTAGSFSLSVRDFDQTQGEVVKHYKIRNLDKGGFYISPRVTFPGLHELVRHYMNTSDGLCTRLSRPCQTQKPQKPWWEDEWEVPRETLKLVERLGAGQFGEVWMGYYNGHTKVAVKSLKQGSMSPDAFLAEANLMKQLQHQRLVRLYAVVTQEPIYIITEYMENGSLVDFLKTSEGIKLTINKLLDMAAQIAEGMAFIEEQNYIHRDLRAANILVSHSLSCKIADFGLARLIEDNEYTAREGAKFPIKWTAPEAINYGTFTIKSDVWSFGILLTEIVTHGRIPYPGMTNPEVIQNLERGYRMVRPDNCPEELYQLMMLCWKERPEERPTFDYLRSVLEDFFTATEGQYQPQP
T1 sequence (P53779 40-402): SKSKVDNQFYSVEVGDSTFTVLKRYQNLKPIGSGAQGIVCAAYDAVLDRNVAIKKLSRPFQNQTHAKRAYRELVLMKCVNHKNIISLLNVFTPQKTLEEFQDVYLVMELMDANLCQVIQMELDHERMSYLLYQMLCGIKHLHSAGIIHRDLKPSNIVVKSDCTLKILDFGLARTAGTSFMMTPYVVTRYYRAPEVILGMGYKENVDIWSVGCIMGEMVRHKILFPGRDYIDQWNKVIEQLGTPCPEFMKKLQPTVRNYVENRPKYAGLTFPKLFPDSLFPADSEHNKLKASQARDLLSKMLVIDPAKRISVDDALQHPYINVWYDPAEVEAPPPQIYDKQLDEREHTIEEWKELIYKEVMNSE

Consider `COc1cc(-c2ccnc(Nc3ccccc3F)n2)cc(OC)c1OC` [Compound I-5], for which the figures for the Ki (at activated JNK3; on CDK-2/Cyclin A; in experiment [1]) were 0.1 to 1 µM, > 5 µM and > 1 µM, respectively.
The corresponding values for `COc1cc(-c2ccnc(Nc3ccc(Cl)cc3)n2)cc(OC)c1OC` [Compound I-9] are < 0.1 µM, > 5 µM and 0.1 to 1 µM.
On to `COc1cc(-c2ccnc(Nc3nc(C)cs3)n2)cc(OC)c1OC` [Compound I-10], for which the Ki is 0.1 to 1 µM on activated JNK3, > 5 µM on CDK-2/Cyclin A and 0.1 to 1 µM in experiment [1].
Take `COc1cc(-c2ccnc(Nc3cccc(Cl)c3)n2)cc(OC)c1OC` [Compound I-18]: the Ki was < 0.1 µM on activated JNK3, > 5 µM on CDK-2/Cyclin A and < 0.1 µM in experiment [1].
With `COc1cccc(Nc2nccc(-c3cc(OC)c(OC)c(OC)c3)n2)c1` [Compound I-20], the inhibition constant Ki at activated JNK3 was < 0.1 µM; on CDK-2/Cyclin A, > 5 µM; in experiment [1] it was 0.1 to 1 µM.
In the case of `COc1cc(-c2ccnc(Nc3cc(F)c(F)c(F)c3)n2)cc(OC)c1OC` [Compound I-22], the values for the Ki (on activated JNK3; at CDK-2/Cyclin A; in experiment [1]) were < 0.1 µM, > 5 µM and > 1 µM, respectively.
For `COc1ccc(Nc2nccc(-c3cc(OC)c(OC)c(OC)c3)n2)cc1Cl` [Compound I-35], in that order: < 0.1 µM, > 5 µM and < 0.1 µM.
`COc1cc(-c2ccnc(NCc3ccccc3)n2)cc(OC)c1OC` [Compound I-37]: the inhibition constant (Ki) (at activated JNK3; in experiment [1]) was > 1 µM each time.
Regarding `COc1cccc(Nc2nccc(-c3cc(C)c(OC)c(C)c3)n2)c1` [Compound I-52], the Ki is < 0.1 µM at activated JNK3 and 0.1 to 1 µM in experiment [1].
The corresponding values for `COc1cc(-c2ccnc(Nc3nnc(C)s3)n2)cc(OC)c1OC` [Compound I-83] are > 1 µM and > 1 µM.
For `COc1cc(-c2ccnc(Nc3nccs3)n2)cc(OC)c1OC` [Compound I-85], the Ki (on activated JNK3; in experiment [2]) was 0.1 to 1 µM in each case.
On to `COc1cc(-c2ccnc(Nc3onc(C)c3C)n2)cc(OC)c1OC` [Compound I-87], for which the figures for the inhibition constant Ki (at activated JNK3; in experiment [1]) were 0.1 to 1 µM and > 1 µM, respectively.
The corresponding values for `COc1cc(-c2ccnc(Nc3cc(C)n[nH]3)n2)cc(OC)c1OC` [Compound I-88] are 0.1 to 1 µM and > 1 µM.
Regarding `COc1cc(-c2ccnc(Nc3cccc(N(C)C)c3)n2)cc(OC)c1OC` [Compound I-89], the Ki (at activated JNK3; in experiment [2]) was 0.1 to 1 µM throughout.
On to `COc1cc(-c2ccnc(Nc3cccc(S(N)(=O)=O)c3)n2)cc(OC)c1OC` [Compound I-94], for which the inhibitory constant (Ki) at activated JNK3 was < 0.1 µM; in experiment [2] it was 0.1 to 1 µM.
On to `CCc1ccc(Nc2cc(-c3cc(OC)c(OC)c(OC)c3)ccn2)cc1` [Compound I-158], for which the Ki in experiment [1] is > 1 µM.
On the same count and under the same terms, the figure for `COc1cc(-c2ccnc(Nc3ccc(F)cc3F)c2)cc(OC)c1OC` [Compound I-159] is 0.1 to 1 µM; for `COc1cc(-c2ccnc(Nc3ccc(F)c(F)c3)c2)cc(OC)c1OC` [Compound I-160] it is > 1 µM.
Take `COc1ccc(-c2ccnc(Nc3cccc(-c4ccc(CO)cc4)c3)n2)c(OC)c1OC` [II-49]: the results for the Ki (on CDK-2/Cyclin A; in experiment [2]) were > 5 µM and < 0.1 µM, respectively.
For `COc1ccc(-c2ccnc(Nc3cccc(-c4ccc(F)c(Cl)c4)c3)n2)c(OC)c1OC` [II-50], in that order: > 5 µM and 0.1 to 1 µM.
In the case of `COc1ccc(-c2ccnc(Nc3cccc(-c4cccc(N)c4)c3)n2)c(OC)c1OC` [II-51], the figures for the Ki (on CDK-2/Cyclin A; in experiment [2]) were > 5 µM and 0.1 to 1 µM, respectively.
The corresponding values for `COc1ccc(-c2ccnc(Nc3cccc(-c4ccc(N(C)C)cc4)c3)n2)c(OC)c1OC` [II-52] are > 5 µM and 0.1 to 1 µM.
The corresponding values for `COc1ccc(-c2ccnc(Nc3cccc(-c4cccnc4)c3)n2)c(OC)c1OC` [II-53] are > 5 µM and 0.1 to 1 µM.
As to `COc1ccc(-c2ccnc(Nc3cc(-c4cccc(Cl)c4)ccc3C)n2)c(OC)c1OC` [II-54], the Ki is > 5 µM on CDK-2/Cyclin A and 0.1 to 1 µM in experiment [2].
For `COc1ccc(-c2ccnc(Nc3cc(-c4ccc(N(C)C)cc4)ccc3C)n2)c(OC)c1OC` [II-55], in that order: > 5 µM and < 0.1 µM.
`COc1ccc(-c2ccnc(Nc3cc(-c4cccc(C(F)(F)F)c4)ccc3C)n2)c(OC)c1OC` [II-57]: the Ki is > 5 µM at CDK-2/Cyclin A and > 1 µM in experiment [2].
The corresponding values for `COc1ccc(-c2ccnc(Nc3cc(-c4cc(C)ccc4C)ccc3C)n2)c(OC)c1OC` [II-58] are > 5 µM and > 1 µM.
The corresponding values for `CCOc1cccc(-c2ccc(C)c(Nc3nccc(-c4ccc(OC)c(OC)c4OC)n3)c2)c1` [II-59] are > 5 µM and 0.1 to 1 µM.
The corresponding values for `COc1ccc(-c2ccnc(Nc3cc(-c4cccnc4)ccc3C)n2)c(OC)c1OC` [II-60] are > 5 µM and 0.1 to 1 µM.
For `COc1ccc(-c2ccnc(Nc3cc(CO)ccc3C)n2)c(OC)c1OC` [II-61], the Ki on CDK-2/Cyclin A is > 5 µM; in experiment [2] it was 0.1 to 1 µM.

Usually Ki stands for a measure of affinity in units of concentration, obtained from inhibition or displacement.
